According to patent publication US20050119321A1, “2-substituted-1,3-thiazole compounds” (priority 2002, published 2005):

Compound | melting point
COc1ccc(CCC(=O)Nc2ncc([N+](=O)[O-])s2)cc1 [Example 5, 3-(4-Methoxyphenyl)-N-(5-nitro-1,3-thiazol-2-yl)propanamide] | 224 to 227 °C (dec.)
COc1ccc(CCCC(=O)Nc2ncc([N+](=O)[O-])s2)cc1 [Example 6, 4-(4-Methoxyphenyl)-N-(5-nitro-1,3-thiazol-2-yl)butanamide] | 176 to 177 °C
COc1ccc(Nc2nc(N)c(C(C)=O)s2)cc1 [Example 3, 1-{4-Amino-2-[(4-methoxyphenyl)amino]-1,3-thiazol-5-yl}ethanone] | 180 °C (dec.)
